Laboratory results as given in patent publication US5593970A, “Heterocyclic anthracycline analogs” (priority 1994, dated 1997).
Values joined by “and” are separate entries in the source; they are usually repeats but may differ in a detail not shown here. Identical values can stand only once. Like-named read-outs stand apart in the source and are kept apart here.

Key:
[1] = tested on: SN-12C; assay: NCI sulforhodamine B assay; format: cell-based, human
Description: (§1) These assays were carried out at the Developmental Therapeutics Program, Division of Cancer Treatment, National Cancer Institute (Bethesda, Md., U.S.A.). The method consists of incubating varying concentrations of the drug with an inoculum of cells for two days. […] The 57 cell lines included two mouse leukemia lines (P388 parental and adriamycin resistant) and […] human cell lines.
(§2) It should be noted that the first two parameters (GI50 and TGI) relate to antiproliferation effects while the third one (LC50) indicates true cytotoxicity. A value of -4 or greater is considered to denote resistance (inactivity).

[2] = tested on: NCl-H23; assay: NCI sulforhodamine B assay; format: cell-based, human
Description: as §1, §2

[3] = tested on: MCF-7; assay: NCI sulforhodamine B assay; format: cell-based, human
Description: as §1, §2

[4] = tested on: OVCAR-4; assay: NCI sulforhodamine B assay; format: cell-based, human
Description: as §1, §2

[5] = tested on: SK-MEL-28; assay: NCI sulforhodamine B assay; format: cell-based, human
Description: as §1, §2

[6] = tested on: HCC-2998; assay: NCI sulforhodamine B assay; format: cell-based, human
Description: as §1, §2

[7] = tested on: UACC-257; assay: NCI sulforhodamine B assay; format: cell-based, human
Description: as §1, §2

[8] = tested on: UACC-62; assay: NCI sulforhodamine B assay; format: cell-based, human
Description: as §1, §2

[9] = tested on: HCT-15; assay: NCI sulforhodamine B assay; format: cell-based, human; settings: 2880 min
Description: as §1, §2

[10] = tested on: SNB-19; assay: NCI sulforhodamine B assay; format: cell-based, human; settings: for GI50: read-out: Log10 GI50 (converted)
Description: as §1, §2

[11] = tested on: MOLT-4; assay: NCI sulforhodamine B assay; format: cell-based; settings: Homo sapiens, MOLT-4, 48 h; read-out: Log10 TGI (converted)
Description: as §1, §2

[12] = tested on: P388; assay: NCI sulforhodamine B assay; format: cell-based; settings: Mus musculus, P388, 48 h
Description: as §1, §2

[13] = tested on: HCT-116; assay: NCI sulforhodamine B assay; format: cell-based; settings: Homo sapiens
Description: as §1, §2

[14] = tested on: K-562; assay: NCI sulforhodamine B assay; format: cell-based; settings: Homo sapiens, K562, 48 h, read-out: Log10 TGI (converted)
Description: as §1, §2

[15] = tested on: OVCAR-3; assay: NCI sulforhodamine B assay; format: cell-based; settings: Homo sapiens, read-out: Log10 GI50 (converted)
Description: as §1, §2

[16] = tested on: OVCAR-8; assay: NCI sulforhodamine B assay; format: cell-based; settings: Homo sapiens, read-out: Log10 GI50 (converted)
Description: as §1, §2

[17] = tested on: XF-498 L; assay: NCI sulforhodamine B assay; format: cell-based; settings: Homo sapiens
Description: as §1, §2

[18] = tested on: SNB-78; assay: NCI sulforhodamine B assay; format: cell-based; settings: Homo sapiens, SNB-78, 48 h, read-out: Log10 LC50 (converted)
Description: as §1, §2

[19] = tested on: CCRF-CEM; assay: NCI sulforhodamine B assay; format: cell-based; settings: Homo sapiens, 48 h, read-out: Log10 LC50 (converted)
Description: The method consists of incubating varying concentrations of the drug with an inoculum of cells for two days. […] The 57 cell lines included two mouse leukemia lines (P388 parental and adriamycin resistant) and 56 human cell lines.

[20] = tested on: P388/ADR; assay: NCI sulforhodamine B assay; format: cell-based, mouse
Description: as §1, §2

[21] = tested on: tumor cell lines; settings: tumor cell line panel, 48 h
[22] = tested on: Renal; settings: renal cancer cell lines, 48 h
[23] = tested on: Colon; settings: colon cancer cell lines, 48 h

COC(=O)C1CC2=C(C(=O)c3c(cc4ccccc4c3O)C2=O)C(O[C@H]2C[C@H](NC(=O)C(F)(F)F)[C@H](O)[C@H](C)O2)O1 (mixture of isomers) [BCH-242, (1'S,1R,3S) and (1'S, 1S,3R)-Methyl[11-hydroxy-1-2',3',6'-trideoxy-3-trifluroacetamido-L-lyxohexopyranose)-5,12-dioxo-3,4,5,12-tetrahydroanthraceno[2,3-c]pyran-3-yl]formate]
IC100 ([1]; Homo sapiens, SN12C, 48 h, SN-12C, read-out: Log10 TGI (converted)): 3.02 µM | CC50 ([1]; Homo sapiens, SN12C, 48 h, read-out: Log10 LC50, SN-12C (converted)): 5.5 µM | GI50 ([1]; Homo sapiens, SN12C, SN-12C, read-out: Log10 GI50 (converted)): 1.62 µM | Log10 GI50 ([1]; SN-12C): -5.94 log molar | Log10 TGI ([1]; SN-12C): -5.62 log molar | Log10 LC50 ([1]; SN-12C, 2880 min): -5.31 log molar | IC100 ([2]; Homo sapiens, 48 h, NCl-H23, read-out: Log10 TGI (converted)): 3.24 µM | CC50 ([2]; Homo sapiens, NCI-H23, 48 h, read-out: Log10 LC50, NCl-H23 (converted)): 5.89 µM | Log10 GI50 ([2]; NCl-H23): -5.99 log molar | Log10 TGI ([2]; NCl-H23): -5.65 log molar | Log10 LC50 ([2]; NCl-H23, 2880 min): -5.31 log molar | CC50 ([3]; Homo sapiens, MCF7, 48 h, read-out: Log10 LC50, MCF-7 (converted)): 5.37 µM | GI50 ([3]; Homo sapiens, MCF7, MCF-7; read-out: Log10 GI50 (converted)): 0.324 µM | GI50 ([3]; Homo sapiens, MCF7; MCF-7; read-out: Log10 GI50 (converted)): 1.55 µM | Log10 LC50 ([3]; MCF-7; 2880 min): -5.38 log molar | IC100 ([4]; Homo sapiens, OVCAR-4, 48 h, OVCAR-4, read-out: Log10 TGI (converted)): 3.31 µM | CC50 ([4]; Homo sapiens, OVCAR-4, 48 h, read-out: Log10 LC50, OVCAR-4 (converted)): 6.03 µM | Log10 GI50 ([4]; OVCAR-4): -5.94 log molar | Log10 TGI ([4]; OVCAR-4): -5.63 log molar | Log10 LC50 ([4]; OVCAR-4, 2880 min): -5.31 log molar | CC50 ([5]; Homo sapiens, SK-MEL-28, 48 h, read-out: Log10 LC50, SK-MEL-28 (converted)): 7.76 µM | Log10 LC50 ([5]; SK-MEL-28, 2880 min): -5.37 log molar | Log10 GI50 ([6]; HCC-2998): -5.92 log molar | GI50 ([6]; Homo sapiens, HCC 2998, HCC-2998, read-out: Log10 GI50 (converted)): 2.34 µM | CC50 ([7]; Homo sapiens, UACC-257, 48 h, read-out: Log10 LC50, UACC-257 (converted)): 6.61 µM | Log10 LC50 ([7]; UACC-257, 2880 min): -5.47 log molar | IC100 ([8]; Homo sapiens, UACC-62, 48 h, UACC-62, read-out: Log10 TGI (converted)): 3.16 µM | CC50 ([8]; Homo sapiens, UACC-62, 48 h, read-out: Log10 LC50, UACC-62 (converted)): 5.62 µM | Log10 TGI ([8]; UACC-62): -5.77 log molar | Log10 LC50 ([8]; UACC-62, 2880 min): -5.37 log molar | Log10 LC50 [9]: -5.38 log molar | CC50 ([10]; Homo sapiens, SNB-19, 48 h, read-out: Log10 LC50, SNB-19 (converted)): 36.3 µM | GI50 ([10]; Homo sapiens, SNB-19, SNB-19): 3.8 µM | GI50 ([10]; Homo sapiens, SNB-19): 2.29 µM | Log10 LC50 ([10]; SNB-19, 2880 min): -4.65 log molar | IC100 [11]: 3.24 µM | CC50 ([12]; read-out: Log10 LC50 (converted)): > 100 µM | IC100 ([12]; read-out: Log10 TGI): > 100 µM | CC50 ([13]; HCT-116, 48 h, read-out: Log10 LC50 (converted)): 0.933 µM | IC100 ([13]; HCT-116, 48 h, read-out: Log10 TGI (converted)): 0.355 µM | GI50 ([13]; HCT-116, read-out: Log10 GI50 (converted)): 0.132 µM | IC100 [14]: 4.47 µM | GI50 ([15]; OVCAR-3, OVCAR-3): 1.51 µM | GI50 ([15]; OVCAR-3): 0.251 µM | GI50 ([16]; OVCAR-8, OVCAR-8): 0.224 µM | GI50 ([16]; OVCAR-8): 3.24 µM | CC50 ([17]; XF498, 48 h, read-out: Log10 LC50 (converted)): 6.03 µM | IC100 ([17]; XF498, 48 h, XF-498 L, read-out: Log10 TGI (converted)): 3.16 µM | GI50 ([17]; XF498, XF-498 L, read-out: Log10 GI50 (converted)): 1.62 µM | CC50 [18]: > 100 µM | CC50 [19]: > 100 µM | Log10 LC50 ([20]; 2880 min): > -4.00 log molar | CC50 ([20]; Mus musculus, 48 h, read-out: Log10 LC50, P388/ADR (converted)): 69.2 µM | GI50 ([20]; Mus musculus, read-out: Log10 GI50 (converted)): 2.34 µM and 0.324 µM

Methyl(11-hydroxy-5,12-dioxo-3,4,5,12-tetrahydroanthraceno[2,3-c]pyran-3-yl)ketone and Methyl(5-hydroxy-5,12-dioxo-3,4,5,12-tetrahydroanthraceno[2,3-c]pyran-3-yl)ketone [BCH-687]
Log10 LC50, Mean / MG-MID [21]: -4.10 log molar | Average LOG10 LC50 [22]: > -4.21 log molar | Average LOG10 LC50 [23]: -4.25(± 0.09) log molar
